Test results published in the supplement of paper PMC11061612.

Key:
[1] = system: DOK (Oral Cavity Carcinoma); test: combination Emax (second highest fraction inhibited in the dose matrix, 72 h); higher = more inhibition; extreme values may be limits of the assay
In short: (§1)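 Cell lines grown in DMEM/F12 or RPMI with 10% FBS were plated in 1536-well plates and held 24 hours at 37°C, 5% CO2 before 72 hours of exposure to two-drug dose matrices, with DMSO typically at 0.2%. CellTiter-Glo 2.0 luminescence gave viability, which was converted to inhibition. Vehicle wells were set to 0 and blank wells to 1. Combination Emax is the second-highest inhibition in the matrix, and Bliss excess is the observed combination effect minus the expected EA + EB − EA·EB, where EA and EB are the single-agent effects.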

[2] = system: SKN-3 (Head and Neck Carcinoma); test: as above
In short: as §1

[3] = system: GDM-1 (Acute Myeloid Leukemia); test: as above
In short: as §1

[4] = system: RCC10RGB (Kidney Carcinoma); test: as above
In short: as §1

[5] = system: MEG-01 (Chronic Myelogenous Leukemia); test: as above
In short: as §1

[6] = system: 647-V (Bladder Carcinoma); test: as above
In short: as §1

[7] = system: SK-UT-1 (Other Solid Carcinomas); test: as above
In short: as §1

[8] = system: JHH-6 (Hepatocellular Carcinoma); test: as above
In short: as §1

[9] = system: MES-SA (Other Solid Carcinomas); test: as above
In short: as §1

[10] = system: NOMO-1 (Acute Myeloid Leukemia); test: as above
In short: as §1

[11] = system: TC-YIK (Other Solid Carcinomas); test: as above
In short: as §1

[12] = system: SLVL (B-Cell Non-Hodgkin's Lymphoma); test: as above
In short: as §1

[13] = system: SK-LMS-1 (Other Solid Carcinomas); test: as above
In short: as §1

[14] = system: FU-OV-1 (Ovarian Carcinoma); test: as above
In short: as §1

[15] = system: TC-YIK (Other Solid Carcinomas); test: Bliss excess, mean over the matrix (fraction); higher = more synergy
In short: as §1

[16] = system: FU-OV-1 (Ovarian Carcinoma); test: as above
In short: as §1
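Throughout, for Bliss excess, mean over the matrix: after 72 h of two-drug dosing.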

Structure (SMILES) | combination Emax [1] | combination Emax [2] | combination Emax [3] | combination Emax [4] | combination Emax [5] | combination Emax [6] | combination Emax [7] | combination Emax [8] | combination Emax [9] | combination Emax [10] | combination Emax [11] | combination Emax [12] | combination Emax [13] | combination Emax [14] | Bliss excess [15] | Bliss excess [16]
NC1(C(=O)N[C@@H](CCO)c2ccc(Cl)cc2)CCN(c2ncnc3[nH]ccc23)CC1 [Capivasertib] + CC(C)n1c(=O)n(C)c2cnc3cc(F)c(-c4ccc(OCCCN5CCCCC5)nc4)cc3c21 [AZD1390] (first compound max 10 µM, 7x7, partner max 0.3 µM) | 0.5 | 0.2 | 0.401 | 0.2 | 0.256 | 0.22 | 0.354 | 0.309 | 0.469 | 0.429 | 0.17 | 0.637 | 0.324 | 0.253 | -0.0346 | -0.0541
NC1(C(=O)N[C@@H](CCO)c2ccc(Cl)cc2)CCN(c2ncnc3[nH]ccc23)CC1 [Capivasertib] + CCN(CCO)CCCOc1ccc2c(Nc3cc(CC(=O)Nc4cccc(F)c4)[nH]n3)ncnc2c1 [AZD2811] (first compound max 10 µM, 7x7, partner max 1 µM) | 0.592 | 0.23 | 0.837 | 0.292 | 0.638 | 0.309 | 0.522 | 0.4 | 0.756 | 0.735 | 0.95 | 0.667 | 0.457 | 0.268 | -0.0415 | -0.0235
NC1(C(=O)N[C@@H](CCO)c2ccc(Cl)cc2)CCN(c2ncnc3[nH]ccc23)CC1 [Capivasertib] + COc1nnc2ccc(N3CCC(c4ccc(OCCN5CCN(C)C(=O)[C@H]5C)cc4)CC3)nn12 [AZD5153] (first compound max 10 µM, 7x7, partner max 1 µM) | 0.768 | 0.581 | 0.79 | 0.518 | 0.877 | 0.502 | 0.658 | 0.645 | 0.621 | 1 | 0.962 | 0.764 | 0.609 | 0.575 | -0.0723 | -0.0492
NC1(C(=O)N[C@@H](CCO)c2ccc(Cl)cc2)CCN(c2ncnc3[nH]ccc23)CC1 [Capivasertib] + C[C@@H]1COCCN1C2=NC(=NC(=C2)C3(CC3)[S@](=N)(=O)C)C4=C5C=CNC5=NC=C4 [AZD6738] (first compound max 10 µM, 7x7, partner max 10 µM) | 0.601 | 0.566 | 0.734 | 0.469 | 0.945 | 0.76 | 0.829 | 0.506 | 0.721 | 0.968 | 0.901 | 0.845 | 0.566 | 0.35 | 0.0091 | -0.0313
NC1(C(=O)N[C@@H](CCO)c2ccc(Cl)cc2)CCN(c2ncnc3[nH]ccc23)CC1 [Capivasertib] + Cn1cnc2c(F)c(Nc3ccc(Br)cc3Cl)c(C(=O)NOCCO)cc21 [Selumetinib] (first compound max 10 µM, 7x7, partner max 10 µM) | 0.931 | 0.426 | 0.73 | 0.483 | 0.825 | 0.3 | 0.447 | 0.458 | 0.496 | 0.948 | 0.496 | 0.806 | 0.668 | 0.592 | 0.0245 | -0.0316
COc1cc2ncnc(Nc3ccc(F)c(Cl)c3)c2cc1OCCCN1CCOCC1 [Gefitinib] + CC(C)n1c(=O)n(C)c2cnc3cc(F)c(-c4ccc(OCCCN5CCCCC5)nc4)cc3c21 [AZD1390] (first compound max 10 µM, 7x7, partner max 0.3 µM) | 0.382 | 0.236 | 0.131 | 0.563 | 0.11 | 0.0854 | 0.0993 | 0.144 | 0.0714 | 0.328 | 0.188 | 0.185 | 0.12 | 0.296 | -0.046 | -0.0717
CS(=O)(=O)CCNCc1ccc(-c2ccc3ncnc(Nc4ccc(OCc5cccc(F)c5)c(Cl)c4)c3c2)o1 [Lapatinib] + C[C@@H](Oc1cc(-c2cnn(C3CCNCC3)c2)cnc1N)c1c(Cl)ccc(F)c1Cl [Crizotinib] (first compound max 10 µM, 7x7, partner max 10 µM) | 0.979 | 0.738 | 0.913 | 0.908 | 0.992 | 0.906 | 0.511 | 0.683 | 0.813 | 0.828 | 0.957 | 0.65 | 0.864 | 0.696 | -0.0828 | -0.0304
CC(=O)c1c(C)c2cnc(Nc3ccc(N4CCNCC4)cn3)nc2n(C2CCCC2)c1=O [Palbociclib] + CC1(C)CCC(CN2CCN(c3ccc(C(=O)NS(=O)(=O)c4ccc(NCC5CCOCC5)c([N+](=O)[O-])c4)c(Oc4cnc5[nH]ccc5c4)c3)CC2)=C(c2ccc(Cl)cc2)C1 [Venetoclax] (first compound max 10 µM, 7x7, partner max 1 µM) | 0.126 | 0 | 0.892 | 0.476 | 0.484 | 0.098 | 0.108 | 0.227 | 0.361 | 0.596 | 0.534 | 0.325 | 0.147 | 0.175 | -0.0713 | -0.0496
CC(=O)c1c(C)c2cnc(Nc3ccc(N4CCNCC4)cn3)nc2n(C2CCCC2)c1=O [Palbociclib] + Cc1c2c(nn1C)CSCc1cc(n(C)n1)CSc1cc(c3ccccc3c1)OCCCc1c(C(=O)O)n(C)c3c-2c(Cl)ccc13 [AZD5991] (first compound max 10 µM, 7x7, partner max 1 µM) | 0.311 | 0.244 | 0.824 | 0.419 | 0.668 | 0.117 | 0.223 | 0.338 | 0.513 | 0.858 | 0.547 | 0.471 | 0.282 | 0.235 | -0.0144 | -0.0538
CC(=O)c1c(C)c2cnc(Nc3ccc(N4CCNCC4)cn3)nc2n(C2CCCC2)c1=O [Palbociclib] + Cn1cnc2c(F)c(Nc3ccc(Br)cc3Cl)c(C(=O)NOCCO)cc21 [Selumetinib] (first compound max 10 µM, 7x7, partner max 10 µM) | 0.5 | 0.349 | 0.555 | 0.547 | 0.855 | 0.206 | 0.137 | 0.443 | 0.38 | 0.858 | 0.729 | 0.593 | 0.437 | 0.4 | 0.001 | 0.0004
C[C@@H](c1ccc2nccn2c1)n1nnc2ncc(-c3cnn(C)c3)nc21 [Savolitinib] + CC1(C)CCC(CN2CCN(c3ccc(C(=O)NS(=O)(=O)c4ccc(NCC5CCOCC5)c([N+](=O)[O-])c4)c(Oc4cnc5[nH]ccc5c4)c3)CC2)=C(c2ccc(Cl)cc2)C1 [Venetoclax] (first compound max 1 µM, 7x7, partner max 1 µM) | 0.116 | 0.148 | 0.515 | 0.195 | 0.0651 | 0.0716 | 0.149 | 0.0411 | 0.0576 | 0.395 | 0.108 | 0.406 | 0.223 | 0.2 | -0.0506 | -0.0389
C[C@@H](c1ccc2nccn2c1)n1nnc2ncc(-c3cnn(C)c3)nc21 [Savolitinib] + Cc1c2c(nn1C)CSCc1cc(n(C)n1)CSc1cc(c3ccccc3c1)OCCCc1c(C(=O)O)n(C)c3c-2c(Cl)ccc13 [AZD5991] (first compound max 1 µM, 7x7, partner max 1 µM) | 0.372 | 0.216 | 0.208 | 0.289 | 0.148 | 0.233 | 0.174 | 0.103 | 0.191 | 0.864 | 0.193 | 0.374 | 0.223 | 0.204 | 0.003 | -0.056
Cn1cnc2c(F)c(Nc3ccc(Br)cc3Cl)c(C(=O)NOCCO)cc21 [Selumetinib] + C=CCn1c(=O)c2cnc(Nc3ccc(N4CCN(C)CC4)cc3)nc2n1-c1cccc(C(C)(C)O)n1 [AZD1775] (first compound max 10 µM, partner max 1 µM) | 0.618 | 0.477 | 0.898 | 0.591 | 0.974 | 0.651 | 0.58 | 0.297 | 0.731 | 0.999 | 0.826 | 0.797 | 0.599 | 0.47 | -0.03 | -0.015
Cn1cnc2c(F)c(Nc3ccc(Br)cc3Cl)c(C(=O)NOCCO)cc21 [Selumetinib] + CC(C)n1c(=O)n(C)c2cnc3cc(F)c(-c4ccc(OCCCN5CCCCC5)nc4)cc3c21 [AZD1390] (first compound max 10 µM, 7x7, partner max 0.3 µM) | 0.416 | 0.228 | 0.165 | 0.437 | 0.671 | 0.154 | 0.153 | 0.168 | 0.115 | 0.767 | 0.466 | 0.448 | 0.264 | 0.431 | 0.0473 | -0.0109
Cn1cnc2c(F)c(Nc3ccc(Br)cc3Cl)c(C(=O)NOCCO)cc21 [Selumetinib] + CCN(CCO)CCCOc1ccc2c(Nc3cc(CC(=O)Nc4cccc(F)c4)[nH]n3)ncnc2c1 [AZD2811] (first compound max 10 µM, 7x7, partner max 1 µM) | 0.633 | 0.27 | 0.861 | 0.505 | 0.788 | 0.394 | 0.328 | 0.318 | 0.405 | 0.988 | 0.874 | 0.639 | 0.334 | 0.405 | -0.0495 | 0.0176
